Measurements taken from US8968700B2, “Imaging of protease activity in live cells using activity based probes” (The Board of Trustees of the Leland Stanford Junior …, priority 2005, dated 2015).
Blank lines part the entries; values can stand above or below the compound they belong to.

What was measured:
bovine cathepsin B [1] = target: T1, bovine cathepsin B (Bos taurus, UniProt P07688); experiment: Kinetics of inhibition, progress curve method (kass); format: biochemical; details: bovine cathepsin B 1 nM; substrate Z-RR-AMC 10 μM; pseudo-first order
Procedure: (§1) The kinetics of inhibition was determined by progress curve method under pseudo-first order conditions with at least 10-fold molar excess of inhibitor. Recorded progress curves were analyzed by non-linear regression according to the following equation (Ref 36).
(§2) [P]=vz(1−e^−k·t)/k where [P] is the product, vz is the velocity at time zero and k is the pseudo first order rate constant. Apparent rate constant (kapp) was determined from the slope of plot k versus [I]. Due to irreversible and competitive mechanism of inhibition, kapp was converted to the association constant (kass) using the equation below: kass=kapp(1+[S]/KM)
(§3) Activity of human cathepsin L was measured using the fluorogenic substrate Z-FRAMC37 (Bachem, USA) (Km=7.1 μM) and cathepsin B was assayed against the fluorogenic substrate Z-RR-AMC38 (Bachem, USA) (Km=114 μM). Concentration of substrates during the measurement was 10 μM. Cathepsins B and L (1 nM final concentrations) were incubated with inhibitor concentrations, ranging from 10 to 2000 nM, in the presence of 10 μM of appropriate substrate. Total volume during the measurement was 100 μl. Increase of fluorescence (370 nm excitation, […] emission) was continuously monitored for 30 minutes by Spectramax M5 spectrofluorimeter.
(§4) (Molecular Devices, USA) and inhibition curves were recorded. DMSO concentration during all measurements was 3.5%.

human cathepsin L [2] = target: T2, human cathepsin L (Homo sapiens, UniProt P07711); experiment: as above; format: biochemical; details: human cathepsin L 1 nM; substrate Z-FR-AMC 10 μM; pseudo-first order
T2 sequence (P07711 114-333): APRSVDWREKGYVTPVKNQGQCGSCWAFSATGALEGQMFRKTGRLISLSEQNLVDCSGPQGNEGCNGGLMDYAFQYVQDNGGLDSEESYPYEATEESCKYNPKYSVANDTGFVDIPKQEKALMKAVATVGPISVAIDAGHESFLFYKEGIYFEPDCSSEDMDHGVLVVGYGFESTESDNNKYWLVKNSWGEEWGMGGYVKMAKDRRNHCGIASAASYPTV
Procedure: as §1, §2, §3, §4

MDA-MB 231 tumors = experiment: In vivo imaging of cysteine protease activity in tumor-bearing mice (IVIS 200); design: species or system mouse; details: tail vein injection
Procedure: Three weeks prior to imaging, MDA-MB 435 or MDA-MB 231 cells (3×10^6 cell per site) were subcutaneously injected into the back left and right side of a Balb-c nude mouse. As is known in the literature, MDA-MB-435, expresses ALP56 (aspartic-like protease 56 kDa), which has homology to aspartic proteases, such as cathepsin D. Similarly, a trypsin-like protease secreted from MDA MB-231 cells can promote cell migration through autocrine activation of PAR-2. GB123 (1 μg) dissolved in DMSO/PBS was injected via the tail vein. Fluorescent images of living mice taken using an IVIS 200 imaging system equipped with a Cy5.5 filter at various time points after GB123 injection show localization of the probe to a tumor site. […] Labeling of active cysteine proteases in cell lines used to generate the tumors was carried out on SDS-PAGE. Intact monolayers of MDA MB-231 or MDA MB-435 cells were either pre-treated with the general papain family protease inhibitor JPM-OEt (50 μM) or with control DMSO (0.1%) for one hour and labeled by addition of GB123 (1 μM) to culture media for four hours. Crude detergent lysates were normalized for total protein, separated by SDS-PAGE, and visualized by scanning of the gel with a Typhoon flatbed laser scanner. […] Plotted values are expressed as percentage of fluorescence measured relative to the signal observed at two hours post injection of probe.

[3] = system: MDA MB-231 or MDA MB-435 cells; experiment: Labeling of active cysteine proteases in intact monolayers of tumor cell lines, SDS-PAGE; format: cell-based; details: 1 μM, four hours
Procedure: GB123 (1 μg) dissolved in DMSO/PBS was injected via the tail vein. Fluorescent images of living mice taken using an IVIS 200 imaging system equipped with a Cy5.5 filter at various time points after GB123 injection show localization of the probe to a tumor site. […] Labeling of active cysteine proteases in cell lines used to generate the tumors was carried out on SDS-PAGE. Intact monolayers of MDA MB-231 or MDA MB-435 cells were either pre-treated with the general papain family protease inhibitor JPM-OEt (50 μM) or with control DMSO (0.1%) for one hour and labeled by addition of GB123 (1 μM) to culture media for four hours. Crude detergent lysates were normalized for total protein, separated by SDS-PAGE, and visualized by scanning of the gel with a Typhoon flatbed laser scanner. […] All of these specific activities were sensitive to pre-treatment with the general inhibitor JPM-OEt. […] Plotted values are expressed as percentage of fluorescence measured relative to the signal observed at two hours post injection of probe.

[4] = system: MDA-MB 231 or C2C12/ras tumors; experiment: In vivo labeling of live mice with active probe and control inactive probe; design: species or system mouse
Procedure: Two to four weeks prior to imaging MDA-MB 231 or C2C12/ras cells (a myoblast cell line wherein ras blocks differentiation) at 2×10^6 cell per spot were injected subcutaneous to the back of Balb-c nude mice.
Mice bearing tumors of similar size were injected intravenous via the tail vein with a DMSO/PBS solution of GB123 or GB125 (0.8-1.1 μg/gr mice). DMSO/PBS was locally injected directly into tumors in indicated mice, 15 minutes prior to probe injection. Fluorescent intensity as photons per second per centimeter square per steradian (p/s/cm^2/sr) was recorded from living mice, (data not shown). Images were taken at various time points (e.g., 1 min., 5 hrs. and 22 hrs.) after probe injection using an IVIS 200 imaging system equipped with a Cy5.5 filter.

[5] = system: protease species in tumor lysates; experiment: Biochemical analysis of in vivo labeled tumors, SDS-PAGE of lysates; design: species or system mouse; details: FIG. 6a
Source text: Tumors from mice described in Example 7 were lysed in a detergent buffer. Crude lysates were normalized for total protein, separated by SDS-PAGE, and visualized by scanning of the gel with a Typhoon flatbed laser scanner, fluorescent images of corresponding mice are shown below gel images, where spotted areas indicate fluorescent readings, as obtained in Example 7. […] Lysates from a C2C12/ras tumor locally injected with DMSO/PBS were immuno precipitated using anti cathepsin B or cathepsin L antibodies as indicated. Samples were separated by SDS-PAGE, and visualized by scanning of the gel with a Typhoon flatbed laser scanner, as shown in FIG. 6b. The antibodies precipitated cat B and cat L complexes, indicating specific labeling of these proteases.

tumor tissues = experiment: Ex vivo imaging of tumor tissue cryo-sections; format: in vivo, mouse; details: 24 hours after probe injection, Cy5 channel
Procedure: Tumors from mice injected with either GB123 or GB125 were extracted 24 hours after probe injection and molded in OCT placed in tert-butanol cooled with liquid nitrogen. Cryo-sections (10 μm) of tumors were mounted with Fluoromount and imaged using a Zeiss 200M fluorescent microscope using a 40× lens and a Cy5 filter.

bovine cathepsin B [6] = target: T1, bovine cathepsin B; experiment: Recombinant cathepsin labeling, SDS-PAGE fluorescent scan; format: biochemical; details: labeling by GB111 and GB117
Procedure: (§5) 0.7 μg recombinant human Cathepsin L (a generous gift from Dr. V. Turk Jozef, Stefan institute Slovenia) or 0.4 μg bovine Cathepsin B (Sigma) in reaction buffer (50 mM acetate, 2 mM DTT and 5 mM MgCl2, pH 5.5) were treated with 25 μM JPM-OEt for 30 min (indicated samples) at room temperature. Increasing concentrations of GB111, GB117, were added to appropriate samples for 30 min. The reaction was stopped by adding sample buffer X4 (40% glycerol, 0.2M Tris/HCl 6.8, 20% β-mercaptoethanol, 12% SDS and 0.4 mg/ml bromophenol blue). Half of the sample was separated on a 12% SDS gel and scanned by a Typhoon laser flatbed scanner at 532/580.

NIH-3T3 cells = experiment: Imaging protease activity in live cells, fluorescence microscopy; format: cell-based, mouse; details: JPM-OEt 50 μM, 1 hour
Procedure: In these experiments (data not shown), cultures of NIH-3T3 cells were either pre-treated with the general papain family protease inhibitor JPM-OEt (50 μM) or with control DMSO (0.1%) for 1 hour and labeled by addition of GB111 or GB117 (1 μM) to growth media for 4-5 hours. The acidotropic lysosomal marker LysoTracker (which produces a green color) was added and cells were imaged using an inverted fluorescent microscope (Nikon). Cells were also treated and analyzed after being washed for 3 hours in growth media containing JPM-OEt (50 μM) or DMSO (0.1%) prior to imaging. As a result, red fluorescence—indicating protease activity, green fluorescence—indicating lysosomal compartments, and yellow fluorescence resulting from overlap in green and red signals was observed.
NIH 3T3 cells (165,000 cells/well) were seeded on glass cover slips in six-well tissue culture plates containing growth medium 1 day before treatment. Cells were either pretreated with the general papain family protease inhibitor JPM-OEt (50 μM) or with control DMSO (0.1%) for 1 hour. Cells were labeled by addition of GB111 or GB117 (1 μM) to growth media at pH 7.4 for 4-5 hours. Cells were transferred to growth media without phenol red. LysoTracker (50 nM final concentration) was added minutes before cells were imaged using an inverted fluorescent microscope (Nikon Diaphot-300 microscope with the 60 (NA 1.4) objective). […]

MCF-10A cells = experiment: Imaging in three-dimensional cell culture on Cultrex, confocal microscopy; format: cell-based; details: JPM-OEt 50 μM
Procedure: In these experiments, reconstituted basement membrane, Cultrex (Trevigen) was mixed with 1 μM GB111 or GB117 with or without JPM-OEt (50 μM). MCF-10A cells were grown three-dimensional cultures on Cultrex containing probes with or without inhibitor for 3 days then imaged by confocal microscopy using a water immersion lens (Zeiss).
MCF-10A cells were grown in 3D culture on reconstituted basement membrane extracted from an EHS mouse sarcoma (Cultrex from Trevigen) as previously described 35. GB117 or GB111 was added to Cultrex (1 μM final concentration) upon cell seeding and day 3 structures were imaged as described below. Day 8 structures grown Cultrex without probes were treated with 1 μM GB111 for 3 hours in assay media (culture media with 2% horse serum and 5 ng/mL EGF). Cells were washed overnight in assay media, fixed and imaged as described below.

[7] = system: endogenous cathepsin activity; experiment: In vivo whole animal imaging with spectral imager; design: species or system mouse; details: 100 mg/kg IP 2 hours prior to GB117
Source text: Photographs illustrating fluorescence imaging of endogenous cathepsin activity in live mice using the quenched activity-based probe GB117 were obtained with the CR1-Maestro™ Spectral imager, and comparisons were made between mice (a) with no probe, (b) with GB117 and (c) with GB117 plus the general cathepsin inhibitor JPM-OEt.
Areas of more intense labeling in the center of the animal (likely labeling of the liver, an organ with high cathepsin activity) were seen.
This work utilized a spectral imager (CRI Maestro) at the small animal imaging facility at Stanford. This new technology makes it possible to acquire the entire spectrum of light emission. Following spectral acquisition, the wavelengths specific to the injected probe can be defined, and autofluorescence subtracted. […] Techniques for spectral imaging in connection with multiple chromosome labels (“chromosome painting”) are known and may be adapted for use in vivo. See U.S. Pat. Nos. 5,936,731 and 6,690,817. A spectral imager is capable of collecting spatial (imaging) information as well as spectral information at every pixel in the image. This 3 dimensional data set enables the detailed study of both absorptive and fluorescent, histological and cellular material. […]

human cathepsin L [8] = target: T2, human cathepsin L; experiment: Recombinant cathepsin labeling, SDS-PAGE fluorescent scan; format: biochemical; design: gift from Dr. V. Turk, Jozef Stefan Institute, Slovenia; details: labeling by GB111 and GB117
Procedure: as §5

kass (inhibition rate constant) (bovine cathepsin B [1]): 38500 ± 7700 M^−1s^1 | kass (inhibition rate constant) (human cathepsin L [2]): 296400 ± 18100 M^−1s^1
Compound: Cc1cccc(C)c1C(=O)OCC(=O)[C@H](CCCCN)NC(=O)[C@H](Cc1ccccc1)NC(=O)OCc1ccccc1 [GB111-NH2]

Compound: CCN1C(=CC=CC=CC2=[N+](CCCCCC(=O)NCCCC[C@H](NC(=O)[C@H](Cc3ccccc3)NC(=O)OCc3ccccc3)C(=O)COC(=O)c3c(C)cccc3C)c3ccc(S(=O)(=O)O)cc3C2(C)C)C(C)(C)c2cc(S(=O)(=O)O)ccc21 [GB123]
fluorescent signal in tumor (MDA-MB 231 tumors): accumulation of fluorescent signal was observed over time | labeling of cysteine protease activities in cell lines [3]: increased labeling of a number of cysteine protease activities in MDA-MB 231 relative to the MDA-MB 435 cells | fluorescence after 1 min. ([4]; MDA-MB-231 injected mice): showed fluorescence | retention of observable signal ([4]; intravenous via tail vein, 0.8-1.1 μg/gr): at least 22 hrs | fluorescence of labeled bands in tumor lysates [5]: significant fluorescence | fluorescent signal in tumor cryo-sections (tumor tissues): accumulation of the specific fluorescent signal

effect of inhibitor pre-treatment on probe labeling (bovine cathepsin B [6]): specifically competed | effect of inhibitor pre-treatment on probe labeling (human cathepsin L [8]): specifically competed
Compound: JPM-OEt
effect of inhibitor pre-treatment on GB117 labeling pattern (NIH-3T3 cells): blocked | effect of inhibitor on GB117 staining in 3D culture (MCF-10A cells): completely blocked | effect of inhibitor pre-treatment on GB117 signal in live mouse [7]: significantly reduced fluorescent signal in the entire animal
